According to patent publication US20200140556A1, “Methods and Compositions for Dectin-2 Stimulation and Cancer Immunotherapy” (The Board of Trustees of the Leland Stanford Junior …, priority 2017, published 2020):

How the values were obtained:
TAMs = experiment: Stimulation of TAMs by Man2-T785 conjugate in solution; assay type: cell-based; conditions: stimuli in solution, low / equivalent concentrations
Text: FIG. 21. Data showing synergism when a Dectin-2 agonist (in this case 65% Man2 100-mer) is conjugated to an immunostimulatory agent (in this case TLR7/8 agonist T785), yielding a glycopeptide conjugate (Man2-T785) that strongly stimulates cells in soluble form.
Synergistic immunostimulatory effects were also observed for the conjugate in vitro. […] Also surprising, the attachment of the TLR7/8 agonist changed the behavior of the Man2 glycopeptides in vitro. Whereas Man2 glycopeptides typically require immobilization (e.g., on a plate or cell) to strongly activate TAMs, the results shown were obtained with the stimuli in solution. […] The same is true of the Man2-antibody conjugates described elsewhere in this disclosure. FIG. 22A presents a schematic of the synthesis used to generate the Man2-T785 conjugate used in FIGS. 20 and 21. Synthetic schemes similar to that depicted in FIG. 22A could also be used to prepare conjugates using R848 (FIG. 22C) and other TLR7/8 ligands.

PDAC cells = experiment: High-mannose glycan display by kifunensine-treated PDAC cells (concavalin A staining, flow cytometry); assay type: cell-based; conditions: tumor cells treated 3 days
Description: (§1) FIG. 5A-5D. Mannosidase inhibition with kifunensine induces high-mannose glycan display and increases tumor cell immunogenicity. (FIG. 5A-5C) PDAC cells were treated with kifunensine for 3 days prior to flow cytometric analysis (FIG. 5A) or coculture with TAM (FIG. 5B, FIG. 5C). (FIG. 5A) PDAC cells stained with the mannose-binding lectin, concavalin A. (FIG. 5B, FIG. 5C) Pretreated PDAC cells were labeled with CSFE and cocultured overnight with TAM to assess cytokine production (FIG. 5B) and tumor cell uptake (FIG. 5C) by Dectin-2-expressing TAM. In some experiments, TAM were treated with Dectin-2-blocking antibodies prior to coculture with PDAC cells (FIG. 5C). *, p<0.05 by Student's t-test. (FIG. 5D) Subcutaneous PDAC tumors from kifunensine-treated mice (i.p., q2d for 7 days) were analyzed by flow cytometry. CD8 T cells (CD8^+CD90^+) among total tumor-infiltrating immune cells are gated.

[1] = tested on: tumor-associated myeloid cells (TAM cells); experiment: Coculture of kifunensine-pretreated PDAC cells with TAM (cytokine production, tumor cell uptake); assay type: cell-based; conditions: overnight coculture; Dectin-2-dependent
Description: as §1

subcutaneous PDAC tumors = experiment: Subcutaneous PDAC tumors from kifunensine-treated mice (flow cytometry); assay type: in vivo; conditions: i.p., q2d for 7 days
Description: as §1

[2] = tested on: Dectin-2 expression by murine monocytes; experiment: Dectin-2 expression by murine monocytes cultured with or without GM-CSF (flow cytometry); assay type: cell-based
Description: (§2) FIG. 4A-4D. GM-CSF induces Dectin-2 expression and sensitizes tumors to Dectin-2 stimuli. (FIG. 4A-4C) Murine (FIG. 4A, FIG. 4B) and human (FIG. 4C) monocytes were cultured for 24 hr in media supplemented or not with GM-CSF (50 ng/mL) prior to flow cytometric analysis of Dectin-2 expression (FIG. 4A, FIG. 4C) or stimulation with furfurman and analysis of TNFα production (FIG. 4B). […] (FIG. 4D) Mice bearing s.c. CT26 tumors were treated with mannan (i.v.) and/or GM-CSF (i.t.) starting on day 6 post-tumor implantation.
(§3) FIG. 27A-27G. […] (FIG. 27A, FIG. 27B) Dectin-2 expression by mouse (FIG. 27A) or human (FIG. 27B) monocytes cultured for 18 hr with media supplemented or not with GM-CSF. (C-E) TNFα production by mouse monocytes pretreated with 3T3 fibroblast-conditioned medium+/−GM-CSF (FIG. 27C) or LMP tumor-conditioned medium+/−GM-CSF-neutralizing antibodies (FIG. 27D) or by human monocytes pretreated as indicated (FIG. 27E). (FIG. 27F) LMP-bearing mice treated with mannan (12.5 mg/kg i.v. q2d×2 wk) and the indicated anibodies (10 mg/kg i.p. q2d). (FIG. 27G) Heatmap depicting correlations between expression of Dectin-2 and the indicated genes in human cancer tissues. Gene expression data were obtained from TCGA and analyzed to obtain Spearman's correlation coefficients. **, p<0.01; ****, p<0.0001 by Student's t-test (B) or two-way ANOVA with post hoc Tukey's (F) test. […]

[3] = tested on: Dectin-2 expression by human monocytes; experiment: Dectin-2 expression by human monocytes cultured with or without GM-CSF (flow cytometry); assay type: cell-based
Description: as §2, §3

s.c. CT26 tumors = s.c. CT26 tumors treated with mannan (i.v.) and/or GM-CSF (i.t.); assay type: in vivo, mice; conditions: from day 6
Description: as §2
as §2, with “(FIG.” for “FIG. 4A-4D. GM-CSF induces Dectin-2 expression and sensitizes tumors to Dectin-2 stimuli. (FIG.”, “production.” for “production (FIG. 4B).”

monocytes = experiment: TNFα production by monocytes pretreated with conditioned medium +/- GM-CSF; assay type: cell-based, mouse
Description: FIG. 27A-27G. […] (FIG. 27A, FIG. 27B) Dectin-2 expression by mouse (FIG. 27A) or human (FIG. 27B) monocytes cultured for 18 hr with media supplemented or not with GM-CSF. (C-E) TNFα production by mouse monocytes pretreated with 3T3 fibroblast-conditioned medium+/−GM-CSF (FIG. 27C) or LMP tumor-conditioned medium+/−GM-CSF-neutralizing antibodies (FIG. 27D) or by human monocytes pretreated as indicated (FIG. 27E). (FIG. 27F) LMP-bearing mice treated with mannan (12.5 mg/kg i.v. q2d×2 wk) and the indicated anibodies (10 mg/kg i.p. q2d). (FIG. 27G) Heatmap depicting correlations between expression of Dectin-2 and the indicated genes in human cancer tissues. Gene expression data were obtained from TCGA and analyzed to obtain Spearman's correlation coefficients. **, p<0.01; ****, p<0.0001 by Student's t-test (B) or two-way ANOVA with post hoc Tukey's (F) test.

In the case of `CCCCc1nc2c(N)nc3ccccc3c2n1CCCCN` [T785, 1-(4-aminobutyl)-2-butyl-1H-imidazo[4,5-c]quinolin-4-amine], the TAM stimulation (TAMs) was “did not”.
`O=C1N[C@@H]2[C@@H](O)[C@@H](O)[C@H](O)[C@@H](CO)N2C1=O` [kifunensine] was tested, and the “high-mannose glycans on the cell surface” value (PDAC cells) was “sharp increase in high-mannose glycans on the cell surface”, the “TAM activation by treated tumor cells (cytokine production, tumor cell uptake)” value [1] was “activated tumor-associated myeloid cells (TAM cells)” and the “T cell infiltration into tumors” value (subcutaneous PDAC tumors) was “led to T cell infiltration into tumors”. The “high-mannose glycan display by tumor cells in vivo” value (subcutaneous PDAC tumors) was “increased high-mannose glycan display by tumor cells”.
“GM-CSF: granulocyte-macrophage colony-stimulating factor” was tested, and the Dectin-2 expression ([2]; mouse monocytes, 18 hr) was “drives Dectin-2 expression”, the Dectin-2 expression ([2]; murine monocytes, GM-CSF 50 ng/mL, 24 hr) was “induced Dectin-2 expression” and the Dectin-2 expression ([3]; 18 hr) was “drives Dectin-2 expression”. For the same compound, the Dectin-2 expression ([3]; GM-CSF 50 ng/mL, 24 hr) was “induced Dectin-2 expression”, the “tumor sensitivity to Dectin-2 stimuli (tumor volume)” value (s.c. CT26 tumors) was “sensitized tumors to Dectin-2 stimuli” and the “sensitivity to Dectin-2 stimuli (TNFα production)” value (monocytes) was “sensitizes TAMs to Dectin-2 stimuli”.
